“Also recorded” adds a separate entry of the source.
What was measured:
[1] = tested on: H-reflex (hyper-reflexia) in spinally transected rats; assay: H-reflex frequency-dependent depression in spinally transected rats; type: in vivo, rat; conditions: no exercise, 3 mg/Kg/day modafinil p.o. for 30 days, measured 30 days after transection, compared with Tx-30, MBET 30 and control
Protocol: Adult female Sprague-Dawley rats (Harlan, 200-250 g, n=40) underwent a lower thoracic laminectomy under ketamine (60 mg/kg, i.m.) and xylazine (10 mg/kg, i.m.) anesthesia. A complete transection (Tx) of the spinal cord was made by aspiration and the transected ends of the cord retracted, producing a 2-3 mm cavity. Gelfoam was inserted into the cavity to facilitate hemostasis and the dura was closed over the Tx site. Muscle and skin were sutured in separate layers, and animals were provided with dextrose-saline (5%, 1 ml/100 g body weight, s.c.) to replace fluid lost during the surgical procedure. […] Animals were monitored for signs of urinary tract infection, and treatment with Baytril (enroflaxin 0.2 mg/day, i.m. for 10 days) was instituted as needed. […]
Stimulation of the tibial nerve under the calcaneal tendon produced two responses, an early M-wave (2 ms latency), produced by direct activation of motoneuronal axons in the tibial nerve, and a later H-reflex (8 ms latency), produced by activation of muscle afferents in the tibial nerve, which synapse monosynaptically on plantar motoneurons. The degree of stimulation that induced frequency-dependent depression of the H-reflex was determined. […] The change in the response at various frequencies was calculated as the percent of the response at 0.2 Hz in order to determine depression of the H-reflex as a function of stimulation frequency. […]

[2] = tested on: cortical cells, inferior olivary cells and thalamic reticular cells; conditions: cited from earlier work

Q: Which “H-reflex amplitude at stimulation frequencies from 0.2 to 10 Hz (habituation / hyper-reflexia)” value [1] does the source give for `NC(=O)C[S+]([O-])C(c1ccccc1)c1ccccc1` (centres unmarked) [modafinil] here?
A: The value was “as effective as passive exercise in normalizing exaggerated reflexes; also recorded: decreased (normalized) the H-reflex amplitude to the same extent as 30 days of exercise; also recorded: the reflexes were normalized; also recorded: effective in reducing hyper-reflexia after spinal transection”.

Q: And the electrical coupling [2]?
A: The electrical coupling was “increases electrical coupling”.
